Laboratory results taken from patent publication US9585892B2, “Solid forms comprising N-(5-tert-butyl-isoxazol-3-yl)-N′-{4-[7-(2-morpholin-4-yl-ethoxy)imidazo[2,1-b][1,3]benzothiazol-2-yl]phenyl}urea, compositions thereof, and uses therewith” (AMBIT BIOSCIENCES CORPORATION, priority 2007, dated 2017).
Structures can show the parent of a compound that is named as a salt. Where two headings read alike, the source gives them in different places.

How the values were obtained:
Type in all cases: physicochemical
[1] = Solubility measurements (solvent aliquot addition, visual inspection); conditions: read-out: Approximate Solubility
Protocol: A weighed sample was treated with aliquots of the test solvent at room temperature or elevated temperature. Complete dissolution of the test material was determined by visual inspection. Solubility was estimated based on the total solvent used to provide complete dissolution. The actual solubility may be greater than the value calculated because of the use of solvent aliquots that were too large or due to a slow rate of dissolution. […] If complete dissolution was achieved as a result of only one aliquot addition, the solubility is expressed as “greater than.”

[2] = Dynamic vapor sorption/desorption (moisture balance); conditions: for post-moisture balance XRPD (resulting material): after sorption/desorption cycle 5-95-5% RH; for weight loss upon initial equilibration: equilibrium at 5% RH; for weight loss on desorption: from 95 to 5% RH
Protocol: Data were collected on a VTI SGA-100 moisture balance system. For sorption isotherms, a sorption range of about 5 to about 95% relative humidity (RH) and a desorption range of about 95 to about 5% RH in 10% RH increments were used for analysis. The samples were not dried prior to analysis. Equilibrium criteria used for analysis were less than 0.0100% weight change in 5 minutes with a maximum equilibration time of 3 hours if the weight criterion was not met. Data were not corrected for the initial moisture content of the samples.

[3] = Stress experiments (temperature or relative humidity, XRPD after stress)
Protocol: Stress Experiments. Solids were stressed under different temperature or relative humidity (RH) environments for a measured time period. Specific RH values were achieved by placing the sample inside sealed chambers containing saturated salt solutions. The salt solutions were selected and prepared following an ASTM standard procedure. Samples were analyzed by XRPD immediately after removal from the stress environment.
X-ray powder diffraction analyses were performed on an Inel XRG-3000 diffractometer, equipped with a curved position-sensitive detector with a […] of 120°. Real time data was collected using Cu Kα radiation starting at approximately 4 ° 2θ at a resolution of 0.03 ° 2θ. The tube voltage and amperage were set to 40 kV and 30 mA, respectively. […] Samples were prepared for analysis by packing them into thin-walled glass capillaries. Each capillary was mounted onto a goniometer head that is motorized to permit spinning of the capillary during data acquisition. Instrument calibration was performed daily using a silicon reference standard.

[4] = Oven: 40° C., 4 days, listed as A

Work on `CC(C)(C)c1cc(NC(=O)Nc2ccc(-c3cn4c(n3)sc3cc(OCCN5CCOCC5)ccc34)cc2)no1` [Form A of the HCl salt of Compound B1, N-(5-tert-butyl-isoxazol-3-yl)-N′-{4-[7-(2-morpholin-4-yl-ethoxy)imidazo[2,1-b][1,3]benzothiazol-2-yl]phenyl}urea] yielded a solubility ([1]; 1,4-dioxane, organic solvent or mixture, thermodynamic from solid, 1,4-Dioxane, Ambient) of less than 2000 µg/mL, a solubility ([1]; 2-butanone, organic solvent or mixture, thermodynamic from solid, 2-Butanone, Ambient) of less than 2000 µg/mL and a solubility ([1]; acetone, organic solvent or mixture, thermodynamic from solid, Acetone, Ambient) of less than 2000 µg/mL. For the same compound, the solubility ([1]; acetonitrile, organic solvent or mixture, thermodynamic from solid, Acetonitrile (ACN), Ambient) was less than 2000 µg/mL, the solubility ([1]; acetonitrile/water (1:1), 60 °C, aqueous with cosolvent or surfactant or cyclodextrin, thermodynamic from solid, ACN/water (1:1), 60° C.) was no less than 110000 µg/mL and the solubility ([1]; dichloromethane, organic solvent or mixture, thermodynamic from solid, Dichloromethane (DCM), Ambient) was less than 2000 µg/mL. The solubility ([1]; ethanol, organic solvent or mixture, thermodynamic from solid, Ethanol (EtOH), Ambient) was 1000 µg/mL, the solubility ([1]; ethanol/water (4:1), 60 °C, organic solvent or mixture, thermodynamic from solid, Ethanol/water (4:1), 60° C.) was no less than 39000 µg/mL and the solubility ([1]; ethanol/water (24:1), 60 °C, organic solvent or mixture, thermodynamic from solid, Ethanol/water (24:1), 60° C.) was less than 2000 µg/mL. The solubility ([1]; ethyl acetate, organic solvent or mixture, thermodynamic from solid, Ethyl Acetate (EtOAc), Ambient) was less than 2000 µg/mL, the solubility ([1]; isopropanol, organic solvent or mixture, thermodynamic from solid, Isopropanol (IPA), Ambient) was less than 2000 µg/mL and the solubility ([1]; isopropanol/water (24:1), 60 °C, organic solvent or mixture, thermodynamic from solid, Isopropanol/water (24:1), 60° C.) was less than 2000 µg/mL. It also gave a solubility ([1]; methanol, organic solvent or mixture, thermodynamic from solid, Methanol (MeOH), Ambient) of 3000 µg/mL, a solubility ([1]; nitromethane, organic solvent or mixture, thermodynamic from solid, Nitromethane, Ambient) of less than 2000 µg/mL and a solubility ([1]; tetrahydrofuran, organic solvent or mixture, thermodynamic from solid, Tetrahydrofuran (THF), Ambient) of less than 2000 µg/mL. It also gave a solubility ([1]; trifluoroethanol, organic solvent or mixture, thermodynamic from solid, Trifluoroethanol (TFE), Ambient) greater than 72000 µg/mL, a solubility ([1]; trifluorotoluene, organic solvent or mixture, thermodynamic from solid, Trifluorotoluene (TFT), Ambient) of less than 2000 µg/mL and a solubility ([1]; water, thermodynamic from solid, Water, Ambient, certain samples formed a gel upon addition of water, actual solubility may differ substantially) of 36000 µg/mL. For the same compound, the “post-moisture balance XRPD (resulting material)” value [2] was “Form D”, the “post-moisture balance XRPD (resulting material)” value ([2]; listed as A) was “FORM D” and the “weight loss upon initial equilibration” value [2] was “about 3.9%”. For the same compound, the “weight loss upon initial equilibration” value ([2]; listed as A) was ~3.9% WEIGHT LOSS UPON EQUILIBRIUM, the “weight gain on sorption” value ([2]; from 5 to 95% RH) was “about 16.7%” and the “water corresponding to the weight gain on sorption” value ([2]; from 5 to 95% RH, listed as A) was “CORRESPONDING TO 6.5 MOLES OF WATER”. For the same compound, the “weight gain on sorption” value ([2]; from 5 to 95% RH, listed as A) was ~16.7% WEIGHT GAIN FROM 5 TO 95% RH,, the “weight loss on desorption” value [2] was “about 16.7%” and the “weight loss on desorption” value ([2]; listed as A) was ~16.6% WEIGHT LOSS FROM 95 TO 5% RH. The weight gain ([3]; 75% RH, 1 day) was 1 day: 4.2% weight gain, the weight gain ([3]; 75% RH, 2 days) was 2 days: 3.8% weight gain and the “XRPD Result after stress” value ([3]; 75% RH, ambient temperature, 4 days) was “Form D”. The “XRPD Result after stress” value ([3]; Oven: 40° C., 4 days) was “mixture of Form A and Form E”, the “XRPD Result after stress” value [3, 4] was “A + E” and the weight loss [3, 4] was 4 days: 3.0% weight loss.
